Results: US8247211B2, “Glycopeptide antibiotics” (American Cyanamid Company, priority 2001, dated 2012)
≈ marks a conversion by molar mass, not a printed value. Each block holds one compound with its values, some of them ahead of it.

What was measured:
Test in all cases: In vitro antibacterial evaluation: minimum inhibitory concentration (MIC), broth dilution method
Format in all cases: cell-based
[1] = test system: Enterococcus sp.
Summary of the method: (§1)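 Values are minimum inhibitory concentrations, meaning the smallest antibiotic concentration that stops growth of the organism. They come from broth dilution in Muller-Hinton II […] per NCCLS guidance (M7-A2), using 5×10^5 CFU/mL and concentrations from 64 to 0.06 μg/mL.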

[2] = test system: Escherichia coli
Summary of the method: as §1

[3] = test system: Staphylococcus sp.; conditions: 18 hours at 35° C.
Summary of the method: as §1

[4] = test system: Streptococcus sp.; conditions: broth dilution, 18 hours at 35° C.; for MIC Streptococcus pyogenes (GC 4563): strain GC 4563
Summary of the method: as §1

[5] = test system: Escherichia coli; remark: listed apart in the source
[6] = Enterococcus faecalis (ATCC 29212)
[7] = Enterococcus faecalis (GC 4553)
[8] = Enterococcus faecalis (GC 4554)

MIC Enterococcus avium (GC 4558) ([1]; Enterococcus avium (GC 4558)): 64 µg/mL (≈ 46.2 µM)
MIC Enterococcus faecalis (ATCC 29212) [1, 6]: 64 µg/mL (≈ 46.2 µM)
MIC Enterococcus faecalis (GC 4553) [1, 7]: >64 µg/mL
MIC Enterococcus faecalis (GC 4554) [1, 8]: >64 µg/mL
MIC Enterococcus faecium (GC 2243) ([1]; Enterococcus faecium (GC 2243)): >64 µg/mL
MIC Enterococcus faecium (GC 4556) ([1]; Enterococcus faecium (GC 4556)): 64 µg/mL (≈ 46.2 µM)
MIC Enterococcus faecium (GC 4557) ([1]; Enterococcus faecium (GC 4557)): 8 µg/mL (≈ 5.77 µM)
MIC Escherichia coli (GC 4559) [2]: >64 µg/mL
MIC Escherichia coli (GC 4560) [2]: 4 µg/mL (≈ 2.89 µM)
MIC Coagulase Negative Staphylococcus (GC 4547) [3]: 8 µg/mL (≈ 5.77 µM)
MIC Coagulase Negative Staphylococcus (GC 4547) ([3]; broth dilution): 8 µg/mL (≈ 5.77 µM)
MIC Coagulase Negative Staphylococcus (GC 4548) [3]: 8 µg/mL (≈ 5.77 µM)
MIC Coagulase Negative Staphylococcus (GC 4548) ([3]; broth dilution): 8 µg/mL (≈ 5.77 µM)
MIC Coagulase Negative Staphylococcus (GC 4549) [3]: 4 µg/mL (≈ 2.89 µM)
MIC Coagulase Negative Staphylococcus (GC 4549) ([3]; broth dilution): 4 µg/mL (≈ 2.89 µM)
MIC Coagulase Negative Staphylococcus (GC 4551) [3]: 8 µg/mL (≈ 5.77 µM)
MIC Coagulase Negative Staphylococcus (GC 4551) ([3]; broth dilution): 8 µg/mL (≈ 5.77 µM)
MIC Staphylococcus aureus (ATCC 29213) [3]: 16 µg/mL (≈ 11.5 µM)
MIC Staphylococcus aureus (ATCC 29213) ([3]; broth dilution): 16 µg/mL (≈ 11.5 µM)
MIC Staphylococcus aureus (GC 1131) [3]: 32 µg/mL (≈ 23.1 µM)
MIC Staphylococcus aureus (GC 1131) ([3]; broth dilution): 32 µg/mL (≈ 23.1 µM)
MIC Staphylococcus aureus (GC 4541) [3]: 16 µg/mL (≈ 11.5 µM)
MIC Staphylococcus aureus (GC 4541) ([3]; broth dilution): 16 µg/mL (≈ 11.5 µM)
MIC Staphylococcus aureus (GC 4542) [3]: 16 µg/mL (≈ 11.5 µM)
MIC Staphylococcus aureus (GC 4542) ([3]; broth dilution): 16 µg/mL (≈ 11.5 µM)
MIC Staphylococcus aureus (GC 4544) [3]: 8 µg/mL (≈ 5.77 µM)
MIC Staphylococcus aureus (GC 4544) ([3]; broth dilution): 8 µg/mL (≈ 5.77 µM)
MIC Staphylococcus aureus (GC 4545) [3]: 16 µg/mL (≈ 11.5 µM)
MIC Staphylococcus aureus (GC 4545) ([3]; broth dilution): 16 µg/mL (≈ 11.5 µM)
MIC Staphylococcus aureus-SMITH (GC 4543) [3]: 8 µg/mL (≈ 5.77 µM)
MIC Staphylococcus aureus-SMITH (GC 4543) ([3]; broth dilution): 8 µg/mL (≈ 5.77 µM)
MIC Streptococcus pyogenes (GC 4563) [4]: 4 µg/mL (≈ 2.89 µM)
MIC Streptococcus pyogenes (ID-3187) ([4]; strain ID-3187): 64 µg/mL (≈ 46.2 µM)
MIC Escherichia coli (ATCC 25922) [5]: >64 µg/mL
Structure (SMILES): CC(C)CC(=O)OC1C(OC2C(CO)OC(Oc3ccc(CC4NC(=O)C(C(C)c5cccs5)NC(=O)CNC(=O)C(CO)NC(=O)C(C(O)C5CNC(=N)N5C5OC(CO)C(O)C(O)C5O)NC(=O)C(C(O)C5CNC(=N)N5)NC4=O)cc3)C(O)C2O)OC(CO)C(O)C1O (stereo not shown) [Example 265a, Cyclo[3-(2-thienyl)-2-aminobutanoyl-O-[4-O-[2-O-(3-methylbutanoyl)hexopyranosyl]hexopyranosyl]tyrosyl-3-(2-iminoimidazolidin-4-yl)seryl-3-(3-hexopyranosyl-2-iminoimidazolidin-4-yl)serylserylglycyl]]
MIC Staphylococcus haemolyticus (GC 4546) [3]: 8 µg/mL (≈ 5.77 µM)
MIC Staphylococcus haemolyticus (GC 4546) ([3]; broth dilution): 8 µg/mL (≈ 5.77 µM)

MIC Enterococcus avium (GC 4558) ([1]; Enterococcus avium (GC 4558)): 64 µg/mL (≈ 48.8 µM)
MIC Enterococcus faecalis (ATCC 29212) [1, 6]: >64 µg/mL
MIC Enterococcus faecalis (GC 4553) [1, 7]: >64 µg/mL
MIC Enterococcus faecalis (GC 4554) [1, 8]: >64 µg/mL
MIC Enterococcus faecalis (GC 6189) ([1]; Enterococcus faecalis (GC 6189)): >64 µg/mL
MIC Enterococcus faecium (GC 2243) ([1]; Enterococcus faecium (GC 2243)): >64 µg/mL
MIC Enterococcus faecium (GC 4556) ([1]; Enterococcus faecium (GC 4556)): >64 µg/mL
MIC Enterococcus faecium (GC 4557) ([1]; Enterococcus faecium (GC 4557)): 64 µg/mL (≈ 48.8 µM)
MIC Enterococcus faecalis (ATCC 29212) ([1]; broth dilution, 18 hours at 35° C., strain ATCC 29212): >64 µg/mL
MIC Enterococcus faecalis (GC 2242) ([1]; broth dilution, 18 hours at 35° C., strain GC 2242): >64 µg/mL
MIC Enterococcus faecium (GC 2243) ([1]; broth dilution, 18 hours at 35° C., strain GC 2243): >64 µg/mL
MIC Enterococcus faecalis (GC 2691) ([1]; broth dilution, 18 hours at 35° C., strain GC 2691): >64 µg/mL
MIC Enterococcus faecalis (GC 3059) ([1]; broth dilution, 18 hours at 35° C., strain GC 3059): >64 µg/mL
MIC Enterococcus faecalis (GC 4552) ([1]; broth dilution, 18 hours at 35° C., strain GC 4552): >64 µg/mL
MIC Enterococcus faecalis (GC 4553) ([1]; broth dilution, 18 hours at 35° C., strain GC 4553): >64 µg/mL
MIC Enterococcus faecalis (GC 4554) ([1]; broth dilution, 18 hours at 35° C., strain GC 4554): >64 µg/mL
MIC Enterococcus faecium (GC 4556) ([1]; broth dilution, 18 hours at 35° C., strain GC 4556): >64 µg/mL
MIC Enterococcus faecium (GC 4557) ([1]; broth dilution, 18 hours at 35° C., strain GC 4557): 64 µg/mL (≈ 48.8 µM)
MIC Enterococcus avium (GC 4558) ([1]; broth dilution, 18 hours at 35° C., strain GC 4558): 64 µg/mL (≈ 48.8 µM)
MIC Enterococcus faecalis (GC 6189) ([1]; broth dilution, 18 hours at 35° C., strain GC 6189): >64 µg/mL
MIC Escherichia coli (GC 4559) [2]: >64 µg/mL
MIC Escherichia coli (GC 4560) [2]: >64 µg/mL
MIC Coagulase Negative Staphylococcus (GC 4547) [3]: >64 µg/mL
MIC Coagulase Negative Staphylococcus (GC 4547) ([3]; broth dilution): >64 µg/mL
MIC Coagulase Negative Staphylococcus (GC 4548) [3]: >64 µg/mL
MIC Coagulase Negative Staphylococcus (GC 4548) ([3]; broth dilution): >64 µg/mL
MIC Coagulase Negative Staphylococcus (GC 4549) [3]: >64 µg/mL
MIC Coagulase Negative Staphylococcus (GC 4549) ([3]; broth dilution): >64 µg/mL
MIC Coagulase Negative Staphylococcus (GC 4551) [3]: >64 µg/mL
MIC Coagulase Negative Staphylococcus (GC 4551) ([3]; broth dilution): >64 µg/mL
MIC Coagulase Negative Staphylococcus (GC 6257) [3]: >64 µg/mL
MIC Coagulase Negative Staphylococcus (GC 6257) ([3]; broth dilution): >64 µg/mL
MIC Staphylococcus aureus (ATCC 29213) [3]: >64 µg/mL
MIC Staphylococcus aureus (ATCC 29213) ([3]; broth dilution): >64 µg/mL
MIC Staphylococcus aureus (GC 1131) [3]: >64 µg/mL
MIC Staphylococcus aureus (GC 1131) ([3]; broth dilution): >64 µg/mL
MIC Staphylococcus aureus (GC 3051) [3]: >64 µg/mL
MIC Staphylococcus aureus (GC 3051) ([3]; broth dilution): >64 µg/mL
MIC Staphylococcus aureus (GC 3053) [3]: >64 µg/mL
MIC Staphylococcus aureus (GC 3053) ([3]; broth dilution): >64 µg/mL
MIC Staphylococcus aureus (GC 4541) [3]: >64 µg/mL
MIC Staphylococcus aureus (GC 4541) ([3]; broth dilution): >64 µg/mL
MIC Staphylococcus aureus (GC 4542) [3]: >64 µg/mL
MIC Staphylococcus aureus (GC 4542) ([3]; broth dilution): >64 µg/mL
MIC Staphylococcus aureus (GC 4544) [3]: >64 µg/mL
MIC Staphylococcus aureus (GC 4544) ([3]; broth dilution): >64 µg/mL
MIC Staphylococcus aureus (GC 4545) [3]: >64 µg/mL
MIC Staphylococcus aureus (GC 4545) ([3]; broth dilution): >64 µg/mL
MIC Staphylococcus aureus-SMITH (GC 4543) [3]: >64 µg/mL
MIC Staphylococcus aureus-SMITH (GC 4543) ([3]; broth dilution): >64 µg/mL
MIC Streptococcus pneumoniae (ATCC 6301) ([4]; strain ATCC 6301): 64 µg/mL (≈ 48.8 µM)
MIC Streptococcus pneumoniae (GC 1894) ([4]; strain GC 1894): 64 µg/mL (≈ 48.8 µM)
MIC Streptococcus pyogenes (GC 4563) [4]: >64 µg/mL
MIC Streptococcus agalactiae (GC 4564) ([4]; strain GC 4564): >64 µg/mL
MIC Streptococcus pneumoniae (GC 4565) ([4]; strain GC 4565): 64 µg/mL (≈ 48.8 µM)
MIC Escherichia coli (ATCC 25922) [5]: >64 µg/mL
Structure (SMILES): CC(c1ccccc1)C1NC(=O)CNC(=O)C(CO)NC(=O)C(C(O)C2CNC(=N)N2C2OC(CO)C(O)C(O)C2O)NC(=O)C(C(O)C2CNC(=N)N2)NC(=O)C(Cc2ccc(OC3OC(CO)C(OC4OC(CO)C(O)C(O)C4O)C(O)C3O)cc2N)NC1=O (stereo not drawn) [Example 287, Cyclo[glycyl-β-methylphenylalanyl-2-amino-O-(4-O-hexopyranosylhexopyranosyl)tyrosyl-3-(2-iminoimidazolidin-4-yl)seryl-3-(3-hexopyranosyl-2-iminoimidazolidin-4-yl)serylseryl]]
MIC Staphylococcus haemolyticus (GC 4546) [3]: >64 µg/mL
MIC Staphylococcus haemolyticus (GC 4546) ([3]; broth dilution): >64 µg/mL
